Assay type in all cases: functional
Conditions in all cases: time 18-24 hrs

The test system of assay [1] is Acinetobacter baumannii. Kind of assay: Antibiofilm activity against Acinetobacter baumannii S1 assessed as inhibition rate of biofilm formation at 100 uM incubated for 18 to 24 hrs by crystal violet staining based assay (reference value: 28.8 +/- 8.21%). The arrangement: scale not given: the % may be the effect or the level left.
Assay [2] has as its system Acinetobacter baumannii. Briefly: Antibacterial activity against Acinetobacter baumannii S1 assessed as planktonic growth inhibition incubated for 18 to 24 hrs by CLSI protocol based assay.
Assay [3] concerns Acinetobacter baumannii. Briefly: Antibacterial activity against Acinetobacter baumannii assessed as planktonic growth inhibition incubated for 18 to 24 hrs by CLSI protocol based assay.

This note sets out measurements from ChEMBL document CHEMBL5150056, “Synthesis and antibiofilm evaluation of N-acyl-2-aminopyrimidine derivatives against Acinetobacter baumannii” (Bioorg Med Chem, 2022).

By MIC is commonly meant the smallest concentration in the dilution series that meets the test's criterion for growth inhibition.

The structures appear in SMILES notation. ≈ marks a conversion by molar mass, not a printed value.

`O=C(COc1ccccc1)Nc1ncccn1`: the Activity in assay [1] is recorded as 18.2%. Further, the MIC in assay [2] was over 256 µg/mL. Regarding `CN[C@@H]1[C@@H](O)[C@@H](O[C@@H]2[C@@H](O)[C@H](O[C@H]3O[C@H]([C@@H](C)NC)CC[C@H]3N)[C@@H](N)C[C@H]2N)OC[C@]1(C)O.O=S(=O)(O)O`, in assay [3], the MIC was 1 µg/mL. For the compound `CCCCCCCCCCCCCC(=O)Nc1ncc(Cl)c(Cl)n1`, the Activity in assay [1] turned out to be 30.9%. In addition, in assay [2], the MIC was over 256 µg/mL.

Consider `CCCCCCCCCCCCCC(=O)Nc1nccc(Cl)n1`, for which the Activity in assay [1] turned out to be 44.9%. In addition, the MIC in assay [2] was over 256 µg/mL.

As to `O=C(/C=C/c1ccccc1)Nc1ncccn1`, the Activity in assay [1] is listed as 13.6%. Besides, in assay [2], the MIC is over 256 µg/mL. Consider `CCCCCCCCCCCCCCCC(=O)Nc1ncccn1`, for which, in assay [1], the Activity amounted to 22.5%. Further, the MIC in assay [2] is over 256 µg/mL. `CCCC(=O)Nc1ncccn1`: in assay [1], the Activity worked out at 28.3%. Also, in assay [2], the MIC was over 256 µg/mL.

For the compound `CCCCCCCCCCCCCC(=O)Nc1ncccn1`, the Activity in assay [1] stood at 36.3%. The MIC in assay [2] was over 256 µg/mL. Consider `CCCCCCCCCCCCCC(=O)Nc1nc(N)cc(F)n1`, for which, in assay [1], the Activity is 53.1%. On to `CCCCCCCCCCCC(=O)Nc1ncccn1`, for which the Activity in assay [1] was determined as 19.1%. Moreover, the MIC in assay [2] is over 256 µg/mL. The like results for `CCCCCCCCCCCCCC(=O)Nc1nccc(N)n1` were, in that order, 35.8% and over 256 µg/mL. `CCCCCCCCCCCCCC(=O)Nc1nc(Cl)cc(N2CCOCC2)n1`: in assay [1], the Activity was 28.5%. For the same compound, in assay [2], the MIC is over 256 µg/mL.

`O=C(CCc1ccccc1)Nc1ncccn1`: in assay [1], the Activity was -0.2%. For the same compound, in assay [2], the MIC is over 256 µg/mL. For `CCOC(=O)CCC(=O)Nc1ncccn1`, in that order: 19.1% and over 256 µg/mL. For `Cc1cc(C)c(C(=O)Nc2ncccn2)c(C)c1`, the Activity in assay [1] is recorded as 26.9%. In addition, the MIC in assay [2] is over 256 µg/mL.

On to `CCCCCCCCCCCCCC(=O)Nc1nccc(C)n1`, for which the Activity in assay [1] was 26.9%. The MIC in assay [2] was over 256 µg/mL.

As to `CCCCCCCCCCCCCC(=O)Nc1ncc(Br)cn1`, in assay [1], the Activity came out at 31.1%. Besides, the MIC in assay [2] was over 256 µg/mL.

`CCCCCCCCCCCCCC(=O)Nc1nc(C)cc(O)n1`: in assay [1], the Activity is listed as 37.8%. Moreover, the MIC in assay [2] is over 256 µg/mL. For `O=C(Nc1ncccn1)c1cccc2ccccc12`, in that order: 9.4% and over 256 µg/mL. As to `Cc1onc(-c2ccccc2)c1C(=O)N[C@@H]1C(=O)N2[C@@H]1SC(C)(C)[C@@H]2C(=O)O` [OXACILLIN], in assay [3], the MIC is 512 µg/mL (≈ 1280 µM). With `CCCCCCCCCCCCCC(=O)Nc1nc(Cl)cc(OC)n1`, in assay [1], the Activity is on record as 49.5%. Further, in assay [2], the MIC is over 256 µg/mL. On to `O=C(Nc1ncccn1)C1CCC1`, for which, in assay [1], the Activity came to 26.8%. Moreover, in assay [2], the MIC was over 256 µg/mL.
